Assay results taken from a compilation of properties of binary mixtures.
Blank lines part the entries; values can stand above or below the compound they belong to.

Experiment: xn = mol fraction of the nth substance listed

Structure (SMILES): CCOS(=O)(=O)[O-].CC[n+]1ccn(C)c1 + CN1CCCC1=O
viscosity (288.15 K, 100 kPa, x1 = 1): 155.5 mPa·s | viscosity (293.15 K, 100 kPa, x1 = 0.8821): 80.25 mPa·s | viscosity (298.15 K, 100 kPa, x1 = 0.596): 27.95 mPa·s | viscosity (318.15 K, 100 kPa, x1 = 0.3021): 5.615 mPa·s

viscosity (303.15 K, 100 kPa, x1 = 0.0833): 69.7 mPa·s | viscosity (313.15 K, 100 kPa, x1 = 0.0833): 50.2 mPa·s | viscosity (333.15 K, 100 kPa, x1 = 0.0833): 31 mPa·s | viscosity (353.15 K, 100 kPa, x1 = 0.0833): 21.35 mPa·s
Structure (SMILES): [Cl-].c1ccc(C[P+](c2ccccc2)(c2ccccc2)c2ccccc2)cc1 + OCCO

Structure (SMILES): CCCCCC[n+]1ccn(C)c1.O=S(=O)([N-]S(=O)(=O)C(F)(F)F)C(F)(F)F + O
viscosity (293.15 K, 101 kPa, x2 = 0.233): 55 mPa·s

viscosity (298.15 K, 101 kPa, x2 = 0): 573 mPa·s | viscosity (298.15 K, 101 kPa, x2 = 0.5): 82.1 mPa·s
Structure (SMILES): CCCC[n+]1ccn(C)c1C.F[B-](F)(F)F + OCCOCCOCCOCCO

Structure (SMILES): ClCCl + CCCC[n+]1ccn(C)c1.O=S(=O)([N-]S(=O)(=O)C(F)(F)F)C(F)(F)F
electrical conductivity (296.35 K, 100 kPa, x2 = 0.0271): 0.64 S/m | electrical conductivity (296.35 K, 100 kPa, x2 = 0.039): 0.79 S/m | electrical conductivity (296.35 K, 100 kPa, x2 = 0.0623): 1.1 S/m | electrical conductivity (296.35 K, 100 kPa, x2 = 0.1129): 1.32 S/m | electrical conductivity (296.35 K, 100 kPa, x2 = 0.2144): 1.58 S/m

viscosity (298.15 K, 100 kPa, x1 = 0.0942): 133 mPa·s | viscosity (298.15 K, 100 kPa, x1 = 0.1083): 128 mPa·s | viscosity (303.15 K, 100 kPa, x2 = 0.8862): 119.5 mPa·s
Structure (SMILES): CC(CC(C)(C)C)CP(=O)([O-])CC(C)CC(C)(C)C.CCCCCCCCCCCCCC[P+](CCCCCC)(CCCCCC)CCCCCC + O

Structure (SMILES): CCCC[N+]1(C)CCCCC1.O=S(=O)([N-]S(=O)(=O)C(F)(F)F)C(F)(F)F + OCCOCCOCCOCCO
viscosity (298.15 K, 101 kPa, x2 = 0): 178.5 mPa·s | viscosity (298.15 K, 101 kPa, x2 = 0.5): 79.5 mPa·s

Structure (SMILES): CCCC[NH3+].O=[N+]([O-])[O-] + O
viscosity (303.15 K, 101 kPa, x2 = 0.3495): 22.35 mPa·s | viscosity (308.15 K, 101 kPa, x2 = 0.3495): 19.25 mPa·s | viscosity (313.15 K, 101 kPa, x2 = 0.3495): 16.75 mPa·s

Structure (SMILES): CC[N+](CC)(CC)CC.[Cl-] + Oc1ccccc1
viscosity (303.15 K, 101 kPa, x1 = 0.333): 72.1 mPa·s | viscosity (313.15 K, 101 kPa, x1 = 0.2): 21.28 mPa·s | viscosity (313.15 K, 101 kPa, x1 = 0.25): 24.68 mPa·s | viscosity (313.15 K, 101 kPa, x1 = 0.333): 43 mPa·s | viscosity (323.15 K, 101 kPa, x1 = 0.25): 16.86 mPa·s | viscosity (323.15 K, 101 kPa, x1 = 0.333): 27.8 mPa·s

Structure (SMILES): CC[n+]1ccn(C)c1.CS(=O)(=O)[O-] + O
viscosity (283.15 K, 102.2 kPa, x1 = 0.75): 88.7 mPa·s | viscosity (288.15 K, 102.2 kPa, x1 = 0.75): 69 mPa·s | viscosity (293.15 K, 102.2 kPa, x1 = 0.75): 53.3 mPa·s | viscosity (308.15 K, 102.2 kPa, x1 = 0.75): 28.4 mPa·s | viscosity (318.15 K, 102.2 kPa, x1 = 0.75): 20.6 mPa·s | viscosity (323.15 K, 102.2 kPa, x1 = 0.75): 17.9 mPa·s | viscosity (333.15 K, 102.2 kPa, x1 = 0.75): 14 mPa·s

Structure (SMILES): CCCC[n+]1ccn(C)c1.O=S(=O)([O-])C(F)(F)F + OCCOCCOCCOCCO
viscosity (298.15 K, 101 kPa, x2 = 0): 59.8 mPa·s

Structure (SMILES): CCCCCCCCn1cc[n+](C)c1.O=S(=O)([N-]S(=O)(=O)C(F)(F)F)C(F)(F)F + c1ccccc1
viscosity (293 K, 101 kPa, x1 = 0.1): 3.21 mPa·s | viscosity (293 K, 101 kPa, x1 = 0.4): 23.5 mPa·s | viscosity (293 K, 101 kPa, x1 = 0.8): 74.4 mPa·s | viscosity (293 K, 101 kPa, x1 = 1): 113 mPa·s

Structure (SMILES): CCCCCCCCCC[n+]1ccn(C)c1.[Cl-] + O
electrical conductivity (298.15 K, 101.3 kPa, x1 = 0.0171): 3.25 S/m

Structure (SMILES): CC[N+](CC)(CC)CC.[Cl-] + OCC(O)CO
viscosity (318.15 K, 100 kPa, x1 = 0.333): 94.1 mPa·s

Structure (SMILES): CC[n+]1ccn(C)c1.O=S(=O)([N-]S(=O)(=O)C(F)(F)F)C(F)(F)F + O
viscosity (297.55 K, 101 kPa, x1 = 0.722): 18.2 mPa·s | viscosity (297.55 K, 101 kPa, x1 = 0.8): 21.9 mPa·s | viscosity (297.55 K, 101 kPa, x1 = 0.941): 28.9 mPa·s | viscosity (297.55 K, 101 kPa, x1 = 1): 36.3 mPa·s

viscosity (298 K, 100 kPa, x1 = 0.5): 650 mPa·s
Structure (SMILES): CCCCCCCC[N+](C)(CCCCCCCC)CCCCCCCC.[Cl-] + CCC(=O)O

Structure (SMILES): CCCCCCCCn1cc[n+](C)c1.O=S(=O)([N-]S(=O)(=O)C(F)(F)F)C(F)(F)F + O
viscosity (293.15 K, 101 kPa, x2 = 0.205): 75 mPa·s | electrical conductivity (295.15 K, 101 kPa, x2 = 0.205): 0.21 S/m

Structure (SMILES): CCCCCCCCn1cc[n+](C)c1.[Br-] + O
viscosity (298.15 K, 100 kPa, x2 = 0.9008): 31.3 mPa·s | viscosity (298.15 K, 100 kPa, x2 = 0.9487): 7.96 mPa·s

Structure (SMILES): CCCCCCCCn1cc[n+](C)c1.[Cl-] + O
speed of sound (298.15 K, 101 kPa, x2 = 0): 1721 m/s | speed of sound (298.15 K, 101 kPa, x2 = 0.1484): 1666.7 m/s | speed of sound (298.15 K, 101 kPa, x2 = 0.203): 1655.1 m/s | speed of sound (298.15 K, 101 kPa, x2 = 0.5334): 1632.2 m/s | speed of sound (298.15 K, 101 kPa, x2 = 0.6807): 1639.3 m/s | speed of sound (298.15 K, 101 kPa, x2 = 0.8185): 1650.7 m/s | speed of sound (298.15 K, 101 kPa, x2 = 0.9307): 1639.6 m/s | speed of sound (298.15 K, 101 kPa, x2 = 0.9635): 1611.3 m/s

speed of sound (293.15 K, 100 kPa, x1 = 0.2): 1716 m/s | speed of sound (298.15 K, 100 kPa, x1 = 0.2): 1704 m/s | speed of sound (303.15 K, 100 kPa, x1 = 0.2): 1692 m/s | speed of sound (308.15 K, 100 kPa, x1 = 0.2): 1681 m/s | speed of sound (313.15 K, 100 kPa, x1 = 0.2): 1654 m/s
Structure (SMILES): CC[N+]1(C)CCCC1.[Br-] + OCCO
